# Laboratory results as given in US20220088016A1, “CANCER TREATMENT USING MULTI-TARGETED KINASE INHIBITOR IN COMBINATION OF PROTEIN KINASE BIOMARKERS” (ZHEJIANG CROWNMAB BIOTECH CO. LTD., priority 2019, published 2022).
# Experiments:
# [1] = molecular target: JNK3 (Homo sapiens, UniProt P53779); assay: Kinase profiling; type: binding; conditions: read-out: % Ctrl @ 1000 nM
# [2] = molecular target: RPS6KA4 (Kin.Dom.2-C-terminal) (Homo sapiens, UniProt O75676); assay: Kinase profiling; type: binding; conditions: read-out: % Ctrl @ 1000 nM
# [3] = molecular target: EIF2AK1 (Homo sapiens, UniProt Q9BQI3); assay: Kinase profiling; type: binding; conditions: read-out: % Ctrl @ 1000 nM
# [4] = molecular target: CSF1R-autoinhibited (Homo sapiens, UniProt P07333); assay: Kinase profiling; type: binding; conditions: read-out: % Ctrl @ 1000 nM
# [5] = molecular target: PIK4CB (Homo sapiens, UniProt Q9UBF8); assay: Kinase profiling; type: binding; conditions: read-out: % Ctrl @ 1000 nM
# [6] = molecular target: ASK1 (Homo sapiens, UniProt Q99683); assay: Kinase profiling; type: binding; conditions: read-out: % Ctrl @ 1000 nM
# [7] = molecular target: ABL1 (Q252H)-phosphorylated (Homo sapiens, UniProt P00519, Q252H); assay: Kinase profiling; type: binding; conditions: read-out: % Ctrl @ 1000 nM
# [8] = molecular target: RPS6KA5 (Kin.Dom.1-N-terminal) (Homo sapiens, UniProt O75582); assay: Kinase profiling; type: binding; conditions: read-out: % Ctrl @ 1000 nM
# [9] = molecular target: TYK2 (JH1domain-catalytic) (Homo sapiens, UniProt P29597); assay: Kinase profiling; type: binding; conditions: read-out: % Ctrl @ 1000 nM
# [10] = molecular target: YES (Homo sapiens, UniProt P07947); assay: Kinase profiling; type: binding; conditions: read-out: % Ctrl @ 1000 nM
# [11] = molecular target: PIP5K2C (Homo sapiens, UniProt Q8TBX8); assay: Kinase profiling; type: binding; conditions: read-out: % Ctrl @ 1000 nM
# [12] = molecular target: T1, MYLK (Homo sapiens, UniProt Q15746); assay: Kinase profiling; type: binding; conditions: read-out: % Ctrl @ 1000 nM
# T1 construct: T7 phage fusion (said for most assays); made in house
# [13] = molecular target: TGFBR2 (Homo sapiens, UniProt P37173); assay: Kinase profiling; type: binding; conditions: read-out: % Ctrl @ 1000 nM
# [14] = molecular target: ITK (Homo sapiens, UniProt Q08881); assay: Kinase profiling; type: binding; conditions: read-out: % Ctrl @ 1000 nM
# [15] = molecular target: SBK1 (Homo sapiens, UniProt Q52WX2); assay: Kinase profiling; type: binding; conditions: read-out: % Ctrl @ 1000 nM
# [16] = molecular target: FLT3 (R834Q) (Homo sapiens, UniProt P36888, R834Q); assay: Kinase profiling; type: binding; conditions: read-out: % Ctrl @ 1000 nM
# [17] = molecular target: DYRK1A (Homo sapiens, UniProt Q13627); assay: Kinase profiling; type: binding; conditions: read-out: % Ctrl @ 1000 nM
# [18] = molecular target: ICK (Homo sapiens, UniProt Q9UPZ9); assay: Kinase profiling; type: binding; conditions: read-out: % Ctrl @ 1000 nM
# [19] = molecular target: PIK3C2B (Homo sapiens, UniProt O00750); assay: Kinase profiling; type: binding; conditions: read-out: % Ctrl @ 1000 nM
# [20] = molecular target: PLK4 (Homo sapiens, UniProt O00444); assay: Kinase profiling; type: binding; conditions: read-out: % Ctrl @ 1000 nM
# [21] = molecular target: MAP3K1 (Homo sapiens, UniProt Q13233); assay: Kinase profiling; type: binding; conditions: read-out: % Ctrl @ 1000 nM
# [22] = molecular target: ERK4 (Homo sapiens, UniProt P31152); assay: Kinase profiling; type: binding; conditions: read-out: % Ctrl @ 1000 nM
# [23] = molecular target: CDK2 (Homo sapiens, UniProt P24941); assay: Kinase profiling; type: binding; conditions: read-out: % Ctrl @ 1000 nM
# [24] = molecular target: QSK (Homo sapiens, UniProt Q9Y2K2); assay: Kinase profiling; type: binding; conditions: read-out: % Ctrl @ 1000 nM
# [25] = molecular target: PRKCD (Homo sapiens, UniProt Q05655); assay: Kinase profiling; type: binding; conditions: read-out: % Ctrl @ 1000 nM
# [26] = molecular target: EPHA4 (Homo sapiens, UniProt P54764); assay: Kinase profiling; type: binding; conditions: read-out: % Ctrl @ 1000 nM
# [27] = molecular target: IKK-beta (Homo sapiens, UniProt O14920); assay: Kinase profiling; type: binding; conditions: read-out: % Ctrl @ 1000 nM
# [28] = molecular target: GRK2 (Homo sapiens, UniProt P25098); assay: Kinase profiling; type: binding; conditions: read-out: % Ctrl @ 1000 nM
# [29] = molecular target: RIPK4 (Homo sapiens, UniProt P57078); assay: Kinase profiling; type: binding; conditions: read-out: % Ctrl @ 1000 nM
# [30] = molecular target: PAK4 (Homo sapiens, UniProt O96013); assay: Kinase profiling; type: binding; conditions: read-out: % Ctrl @ 1000 nM
# [31] = molecular target: EPHB2 (Homo sapiens, UniProt P29323); assay: Kinase profiling; type: binding; conditions: read-out: % Ctrl @ 1000 nM
# [32] = molecular target: ROCK2 (Homo sapiens, UniProt O75116); assay: Kinase profiling; type: binding; conditions: read-out: % Ctrl @ 1000 nM
# [33] = molecular target: CDKL3 (Homo sapiens, UniProt Q8IVW4); assay: Kinase profiling; type: binding; conditions: read-out: % Ctrl @ 1000 nM
# [34] = molecular target: ERN1 (Homo sapiens, UniProt O75460); assay: Kinase profiling; type: binding; conditions: read-out: % Ctrl @ 1000 nM
# [35] = molecular target: ASK2 (Homo sapiens, UniProt O95382); assay: Kinase profiling; type: binding; conditions: read-out: % Ctrl @ 1000 nM
# [36] = molecular target: ABL1 (T315I)-nonphosphorylated (Homo sapiens, UniProt P00519, T315I); assay: Kinase profiling; type: binding; conditions: read-out: % Ctrl @ 1000 nM
# [37] = system: F4-80 (surface marker of macrophages); assay: F4-80 IHC test in MC-38 tumor; design: species or system mouse; conditions: end of in vivo efficacy trial; vs vehicle group
# Method: MC38 tumor tissues were collected at the end of the in vivo efficacy trial. The tumor tissue was then embedded in paraffin. The expression of CD3/CD4/CD8/F4-80 were tested by immunohistochemistry stain.
# [38] = molecular target: FLT3 (D835V) (Homo sapiens, UniProt P36888, D835V); assay: Kinase profiling; type: binding; conditions: read-out: % Ctrl @ 1000 nM
# Sequence of PAK4 (O96013 whole entry): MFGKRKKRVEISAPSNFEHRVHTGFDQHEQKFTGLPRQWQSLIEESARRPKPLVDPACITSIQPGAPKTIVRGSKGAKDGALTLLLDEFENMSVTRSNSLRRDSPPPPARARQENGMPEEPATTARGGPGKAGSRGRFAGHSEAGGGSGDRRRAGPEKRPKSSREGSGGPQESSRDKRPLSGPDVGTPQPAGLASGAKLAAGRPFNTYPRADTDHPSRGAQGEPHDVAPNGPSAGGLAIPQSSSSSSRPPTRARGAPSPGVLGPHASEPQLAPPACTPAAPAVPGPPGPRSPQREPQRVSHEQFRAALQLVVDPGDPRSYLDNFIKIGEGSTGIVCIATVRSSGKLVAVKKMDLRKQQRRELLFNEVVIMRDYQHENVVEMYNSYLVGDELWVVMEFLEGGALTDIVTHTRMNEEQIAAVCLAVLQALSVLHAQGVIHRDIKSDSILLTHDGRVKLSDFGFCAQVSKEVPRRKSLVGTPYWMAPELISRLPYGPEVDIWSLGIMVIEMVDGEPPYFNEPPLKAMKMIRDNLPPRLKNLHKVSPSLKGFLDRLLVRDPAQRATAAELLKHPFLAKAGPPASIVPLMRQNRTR
# Sequence of PIP5K2C (Q8TBX8 whole entry): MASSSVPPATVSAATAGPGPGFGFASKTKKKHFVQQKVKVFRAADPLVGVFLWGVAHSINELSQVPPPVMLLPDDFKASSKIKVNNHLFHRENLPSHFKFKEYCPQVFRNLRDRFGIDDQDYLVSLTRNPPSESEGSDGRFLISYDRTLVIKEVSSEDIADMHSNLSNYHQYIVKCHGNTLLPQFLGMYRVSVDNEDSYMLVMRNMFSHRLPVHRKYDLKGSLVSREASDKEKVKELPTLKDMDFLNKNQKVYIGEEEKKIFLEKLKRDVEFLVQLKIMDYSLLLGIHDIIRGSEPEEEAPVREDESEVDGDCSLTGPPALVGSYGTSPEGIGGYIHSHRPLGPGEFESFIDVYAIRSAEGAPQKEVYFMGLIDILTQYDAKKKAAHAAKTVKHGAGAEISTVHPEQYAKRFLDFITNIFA
# Sequence of PIK3C2B (O00750 whole entry): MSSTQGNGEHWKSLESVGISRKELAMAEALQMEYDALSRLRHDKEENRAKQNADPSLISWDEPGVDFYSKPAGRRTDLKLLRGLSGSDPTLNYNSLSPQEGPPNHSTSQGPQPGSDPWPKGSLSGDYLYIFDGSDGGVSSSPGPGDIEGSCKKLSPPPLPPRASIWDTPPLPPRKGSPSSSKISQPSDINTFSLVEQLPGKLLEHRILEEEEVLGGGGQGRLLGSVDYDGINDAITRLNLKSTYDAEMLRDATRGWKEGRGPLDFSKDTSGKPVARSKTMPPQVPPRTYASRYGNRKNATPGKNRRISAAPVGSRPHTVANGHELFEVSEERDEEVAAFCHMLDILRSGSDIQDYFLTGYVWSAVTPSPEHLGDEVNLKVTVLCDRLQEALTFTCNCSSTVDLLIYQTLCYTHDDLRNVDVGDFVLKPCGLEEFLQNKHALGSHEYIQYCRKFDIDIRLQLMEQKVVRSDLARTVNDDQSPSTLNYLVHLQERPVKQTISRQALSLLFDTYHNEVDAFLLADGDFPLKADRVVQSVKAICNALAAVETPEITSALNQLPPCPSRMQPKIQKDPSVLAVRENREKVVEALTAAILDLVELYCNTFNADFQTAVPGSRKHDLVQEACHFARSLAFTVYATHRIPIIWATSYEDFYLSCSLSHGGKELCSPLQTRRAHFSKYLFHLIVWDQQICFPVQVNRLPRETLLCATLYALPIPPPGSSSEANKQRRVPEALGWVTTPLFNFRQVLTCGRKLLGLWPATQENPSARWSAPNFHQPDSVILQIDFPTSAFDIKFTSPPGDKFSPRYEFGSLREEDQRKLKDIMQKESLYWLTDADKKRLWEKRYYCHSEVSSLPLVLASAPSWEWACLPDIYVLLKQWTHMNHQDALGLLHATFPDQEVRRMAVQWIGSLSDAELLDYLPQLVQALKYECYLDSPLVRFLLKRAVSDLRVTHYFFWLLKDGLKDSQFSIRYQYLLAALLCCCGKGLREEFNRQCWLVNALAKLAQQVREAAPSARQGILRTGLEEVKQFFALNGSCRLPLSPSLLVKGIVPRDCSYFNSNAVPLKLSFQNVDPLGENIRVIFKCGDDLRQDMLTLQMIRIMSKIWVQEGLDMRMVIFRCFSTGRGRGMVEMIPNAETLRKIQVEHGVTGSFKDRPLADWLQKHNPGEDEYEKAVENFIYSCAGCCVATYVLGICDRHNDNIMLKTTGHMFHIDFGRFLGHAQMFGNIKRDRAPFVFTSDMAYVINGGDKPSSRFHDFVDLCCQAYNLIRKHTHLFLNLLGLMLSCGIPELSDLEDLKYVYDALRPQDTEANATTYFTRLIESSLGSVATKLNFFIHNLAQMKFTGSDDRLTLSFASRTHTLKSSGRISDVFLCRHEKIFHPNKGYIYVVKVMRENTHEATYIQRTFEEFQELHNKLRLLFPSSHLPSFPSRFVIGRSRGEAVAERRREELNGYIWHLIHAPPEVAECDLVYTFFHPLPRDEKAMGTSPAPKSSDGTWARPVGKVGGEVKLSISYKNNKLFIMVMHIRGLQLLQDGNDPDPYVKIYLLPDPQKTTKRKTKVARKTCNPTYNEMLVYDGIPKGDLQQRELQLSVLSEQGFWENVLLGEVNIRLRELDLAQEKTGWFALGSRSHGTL
# Sequence of ROCK2 (O75116 whole entry): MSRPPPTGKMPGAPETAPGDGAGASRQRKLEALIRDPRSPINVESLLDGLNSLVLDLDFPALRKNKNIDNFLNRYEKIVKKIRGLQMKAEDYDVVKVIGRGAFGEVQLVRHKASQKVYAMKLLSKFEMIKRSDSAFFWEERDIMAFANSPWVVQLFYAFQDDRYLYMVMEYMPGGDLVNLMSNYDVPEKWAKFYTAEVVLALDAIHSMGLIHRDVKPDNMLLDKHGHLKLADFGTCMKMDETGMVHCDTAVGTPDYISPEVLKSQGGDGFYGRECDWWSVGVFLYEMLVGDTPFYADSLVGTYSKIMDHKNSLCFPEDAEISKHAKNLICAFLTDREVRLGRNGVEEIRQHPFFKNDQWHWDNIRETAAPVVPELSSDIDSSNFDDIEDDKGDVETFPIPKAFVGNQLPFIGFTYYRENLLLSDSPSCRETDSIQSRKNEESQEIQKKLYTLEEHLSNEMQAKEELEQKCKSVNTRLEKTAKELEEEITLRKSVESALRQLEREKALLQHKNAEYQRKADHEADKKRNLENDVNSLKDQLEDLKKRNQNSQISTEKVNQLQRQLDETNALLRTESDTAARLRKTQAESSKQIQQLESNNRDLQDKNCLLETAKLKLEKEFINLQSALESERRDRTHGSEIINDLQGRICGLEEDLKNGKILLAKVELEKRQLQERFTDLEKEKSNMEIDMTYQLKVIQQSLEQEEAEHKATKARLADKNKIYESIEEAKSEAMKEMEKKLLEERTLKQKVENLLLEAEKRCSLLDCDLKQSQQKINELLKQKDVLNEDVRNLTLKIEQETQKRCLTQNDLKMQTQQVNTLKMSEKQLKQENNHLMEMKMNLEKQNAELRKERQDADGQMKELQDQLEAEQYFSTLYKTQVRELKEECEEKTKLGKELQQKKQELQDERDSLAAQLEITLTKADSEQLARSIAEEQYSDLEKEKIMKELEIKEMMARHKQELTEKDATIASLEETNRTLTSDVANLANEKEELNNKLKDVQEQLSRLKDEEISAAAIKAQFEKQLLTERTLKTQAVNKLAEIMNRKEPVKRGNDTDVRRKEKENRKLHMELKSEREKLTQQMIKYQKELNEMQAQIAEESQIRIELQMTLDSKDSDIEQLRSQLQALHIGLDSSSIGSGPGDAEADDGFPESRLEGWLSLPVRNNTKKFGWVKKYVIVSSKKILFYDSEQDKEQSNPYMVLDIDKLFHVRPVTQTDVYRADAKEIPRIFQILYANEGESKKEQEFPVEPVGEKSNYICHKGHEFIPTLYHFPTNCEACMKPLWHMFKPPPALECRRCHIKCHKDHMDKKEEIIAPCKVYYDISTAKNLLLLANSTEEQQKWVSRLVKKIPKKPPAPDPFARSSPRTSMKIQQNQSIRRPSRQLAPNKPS
# Sequence of ERK4 (P31152 whole entry): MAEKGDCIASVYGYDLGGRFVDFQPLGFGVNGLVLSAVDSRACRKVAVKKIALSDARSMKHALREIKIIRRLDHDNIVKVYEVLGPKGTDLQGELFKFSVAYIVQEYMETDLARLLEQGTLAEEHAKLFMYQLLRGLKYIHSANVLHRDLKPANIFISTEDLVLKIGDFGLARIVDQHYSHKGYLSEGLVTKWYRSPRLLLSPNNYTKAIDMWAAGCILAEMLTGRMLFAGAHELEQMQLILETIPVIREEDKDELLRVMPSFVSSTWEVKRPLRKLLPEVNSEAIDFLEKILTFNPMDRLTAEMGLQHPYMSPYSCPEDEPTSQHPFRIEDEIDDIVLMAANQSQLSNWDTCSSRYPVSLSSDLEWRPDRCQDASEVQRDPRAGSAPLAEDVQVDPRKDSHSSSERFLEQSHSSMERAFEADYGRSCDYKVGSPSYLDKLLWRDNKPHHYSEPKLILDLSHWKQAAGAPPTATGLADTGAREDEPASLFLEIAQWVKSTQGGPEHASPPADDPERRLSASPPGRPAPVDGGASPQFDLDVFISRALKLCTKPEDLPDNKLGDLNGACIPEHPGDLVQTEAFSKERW
# Sequence of TYK2 (JH1domain-catalytic) (P29597 897-1176 limits assumed): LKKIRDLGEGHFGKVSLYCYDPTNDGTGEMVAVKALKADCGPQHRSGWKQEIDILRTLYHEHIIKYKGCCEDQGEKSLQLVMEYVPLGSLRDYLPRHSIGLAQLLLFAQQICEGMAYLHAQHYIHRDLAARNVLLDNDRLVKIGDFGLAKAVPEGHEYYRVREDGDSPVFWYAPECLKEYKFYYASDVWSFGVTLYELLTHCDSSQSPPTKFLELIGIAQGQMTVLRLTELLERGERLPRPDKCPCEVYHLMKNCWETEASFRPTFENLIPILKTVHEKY
structure (smiles),measurement,setting,value
Cc1cc(Oc2cc(NC(=O)C3CC3)ncn2)ccc1NC(=O)Nc1ccc(Cl)c(C(F)(F)F)c1 [CBT-102],remaining activity at 1 µM,[1],85%
same,remaining activity at 1 µM,[2],100%
same,remaining activity at 1 µM,[3],99%
same,remaining activity at 1 µM,[4],60%
same,remaining activity at 1 µM,[5],100%
same,remaining activity at 1 µM,[6],91%
same,remaining activity at 1 µM,[7],82%
same,remaining activity at 1 µM,[8],100%
same,remaining activity at 1 µM,[9],5.6%
same,remaining activity at 1 µM,[10],55%
same,remaining activity at 1 µM,[11],85%
same,remaining activity at 1 µM,[12],98%
same,remaining activity at 1 µM,[13],56%
same,remaining activity at 1 µM,[14],90%
same,remaining activity at 1 µM,[15],92%
same,remaining activity at 1 µM,[16],97%
same,remaining activity at 1 µM,[17],97%
same,remaining activity at 1 µM,[18],100%
same,remaining activity at 1 µM,[19],100%
same,remaining activity at 1 µM,[20],98%
same,remaining activity at 1 µM,[21],83%
same,remaining activity at 1 µM,[22],91%
same,remaining activity at 1 µM,[23],69%
same,remaining activity at 1 µM,[24],91%
same,remaining activity at 1 µM,[25],100%
same,remaining activity at 1 µM,[26],49%
same,remaining activity at 1 µM,[27],92%
same,remaining activity at 1 µM,[28],100%
same,remaining activity at 1 µM,[29],100%
same,remaining activity at 1 µM,[30],100%
same,remaining activity at 1 µM,[31],44%
same,remaining activity at 1 µM,[32],100%
same,remaining activity at 1 µM,[33],4.3%
same,remaining activity at 1 µM,[34],78%
same,remaining activity at 1 µM,[35],94%
same,remaining activity at 1 µM,[36],2.3%
same,F4-80 IHC score (%) in MC-38 tumor tissue,[37],significantly reduced
same,remaining activity at 1 µM,[38],95%
